Reference: US10538554B2, “Peptides and uses therefor as antiviral agents” (priority 2015, dated 2020)
Bridge positions count the residues as written; N and C are the ends. Square brackets hold non-standard residues; d marks the D form. Peptide text beside a SMILES is read from it.

Legend:
[1] = system: H1N1 A1/Malaysia/302/1954; conditions: A1/Malaysia/302/1954, 48 h, 500 μM
H3N8 A/Miami/2/63 = conditions: A/Miami/2/63, 48 h, 500 μM
H3N2 A/HK/8/1968 = conditions: A/HK/8/1968, 48 h, 500 μM
H1N1 A/PR/8/1934 = conditions: A/PR/8/1934, 48 h, 1 μM

| SMILES | % inhibition H1N1 [1] [%] | % inhibition H3N8 (H3N8 A/Miami/2/63) [%] | % inhibition H3N2 (H3N2 A/HK/8/1968) [%] | % Inhibition (H1N1 A/PR/8/1934) [%] |
| --- | --- | --- | --- | --- |
| C[C@H](O)[C@H]1NC(=O)[C@H](N)CSSC[C@H](C(=O)O)NC(=O)[C@@H](CC(N)=O)NC(=O)[C@@H](CS)NC(=O)[C@@H](Cc2ccccc2)NC(=O)[C@@H](CCCNC(=N)N)NC(=O)[C@@H](CO)NC(=O)[C@@H](CCCCN)NC1=O [PSP 2, H-ctksrfcnc-OH] (H-[dC][dT][dK][dS][dR][dF][dC][dN][dC]-OH; disulfide 1-9) | 67.6 | 65 | 18.5 | – |
| C[C@H](O)[C@H]1NC(=O)[C@H](N)CSSC[C@H](C(=O)O)NC(=O)[C@@H](CC(N)=O)NC(=O)[C@@H](Cc2ccccc2)NC(=O)[C@@H](Cc2ccccc2)NC(=O)[C@@H](CCCNC(=N)N)NC(=O)[C@@H](CO)NC(=O)[C@@H](CCCCN)NC1=O [PSP 5, H-ctksrffnc-OH] (H-[dC][dT][dK][dS][dR][dF][dF][dN][dC]-OH; disulfide 1-9) | 47.1 | 77.3 | 45.5 | – |
| C[C@H](O)[C@H]1NC(=O)[C@H](N)CSSC[C@H](C(=O)O)NC(=O)[C@@H](CC(N)=O)NC(=O)[C@@H](CCCNC(=N)N)NC(=O)[C@@H](Cc2ccccc2)NC(=O)[C@@H](CCCNC(=N)N)NC(=O)[C@@H](CO)NC(=O)[C@@H](CCCCN)NC1=O [PSP 15, H-ctksrfrnc-OH] (H-[dC][dT][dK][dS][dR][dF][dR][dN][dC]-OH; disulfide 1-9) | 11.5 | 61.9 | 3.7 | – |
| C[C@H](O)[C@H]1NC(=O)[C@H](N)CSSC[C@H](C(=O)O)NC(=O)[C@@H](CC(N)=O)NC(=O)[C@@H](CCC(=O)O)NC(=O)[C@@H](Cc2ccccc2)NC(=O)[C@@H](CCCNC(=N)N)NC(=O)[C@@H](CO)NC(=O)[C@@H](CCCCN)NC1=O [PSP 4, H-ctksrfenc-OH] (H-[dC][dT][dK][dS][dR][dF][dE][dN][dC]-OH; disulfide 1-9) | 52.9 | 64 | 22.7 | – |
| CC[C@@H](C)[C@H]1NC(=O)[C@@H](Cc2ccccc2)NC(=O)[C@@H]([C@H](C)O)NC(=O)[C@@H](Cc2ccccc2)NC(=O)[C@@H](Cc2c[nH]c3ccccc23)NC(=O)[C@@H](CS)NC(=O)[C@H](NC(=O)[C@H](CCCCN)NC(=O)[C@H](CCCCN)NC(=O)[C@H](CCCNC(=N)N)NC(=O)[C@@H](N)CCCNC(=N)N)CSSC[C@H](C(=O)O)NC(=O)[C@@H](CC(N)=O)NC1=O [PSP V A2, H-RRKKccwftfinc-OH] (H-RRKK[dC][dC][dW][dF][dT][dF][dI][dN][dC]-OH; disulfide 5-13) | – | – | – | <20 |
| CC[C@@H](C)[C@H]1NC(=O)[C@@H](Cc2ccccc2)NC(=O)[C@@H]([C@H](C)O)NC(=O)[C@@H](Cc2ccccc2)NC(=O)[C@@H](Cc2c[nH]c3ccccc23)NC(=O)[C@@H](Cc2c[nH]c3ccccc23)NC(=O)[C@H](NC(=O)[C@H](CCCCN)NC(=O)[C@H](CCCCN)NC(=O)[C@H](CCCNC(=N)N)NC(=O)[C@@H](N)CCCNC(=N)N)CSSC[C@H](C(=O)O)NC(=O)[C@H]2CCCN2C1=O [PSP VI A13, H-RRKKcwwftfipc-OH] (H-RRKK[dC][dW][dW][dF][dT][dF][dI][dP][dC]-OH; disulfide 5-13) | – | – | – | 42 |
| CC[C@@H](C)[C@H]1NC(=O)[C@@H](Cc2ccccc2)NC(=O)[C@@H]([C@H](C)O)NC(=O)[C@@H](Cc2ccccc2)NC(=O)[C@@H](Cc2c[nH]c3ccccc23)NC(=O)[C@@H](CC(=O)O)NC(=O)[C@H](NC(=O)[C@H](CCCCN)NC(=O)[C@H](CCCCN)NC(=O)[C@H](CCCNC(=N)N)NC(=O)[C@@H](N)CCCNC(=N)N)CSSC[C@H](C(=O)O)NC(=O)[C@@H](CC(N)=O)NC1=O [PSP V A3, H-RRKKcdwftfinc-OH] (H-RRKK[dC][dD][dW][dF][dT][dF][dI][dN][dC]-OH; disulfide 5-13) | – | – | – | <20 |
| CC[C@@H](C)[C@H]1NC(=O)[C@@H](Cc2ccccc2)NC(=O)[C@@H]([C@H](C)O)NC(=O)[C@@H](Cc2ccccc2)NC(=O)[C@@H](Cc2c[nH]c3ccccc23)NC(=O)[C@@H]([C@H](C)CC)NC(=O)[C@H](NC(=O)[C@H](CCCCN)NC(=O)[C@H](CCCCN)NC(=O)[C@H](CCCNC(=N)N)NC(=O)[C@@H](N)CCCNC(=N)N)CSSC[C@H](C(=O)O)NC(=O)[C@@H](CC(N)=O)NC1=O [PSP V A8, H-RRKKciwftfinc-OH] (H-RRKK[dC][dI][dW][dF][dT][dF][dI][dN][dC]-OH; disulfide 5-13) | – | – | – | 20 |
| CC[C@@H](C)[C@H]1NC(=O)[C@@H](Cc2ccccc2)NC(=O)[C@@H]([C@H](C)O)NC(=O)[C@@H](Cc2ccccc2)NC(=O)[C@@H](Cc2c[nH]c3ccccc23)NC(=O)[C@@H](Cc2c[nH]c3ccccc23)NC(=O)[C@H](NC(=O)[C@H](CCCCN)NC(=O)[C@H](CCCCN)NC(=O)[C@H](CCCNC(=N)N)NC(=O)[C@@H](N)CCCNC(=N)N)CSSC[C@H](C(=O)O)NC(=O)[C@@H](CCC(N)=O)NC1=O [PSP VI A14, H-RRKKcwwftfiqc-OH] (H-RRKK[dC][dW][dW][dF][dT][dF][dI][dQ][dC]-OH; disulfide 5-13) | – | – | – | 85 |
| CC[C@@H](C)[C@H]1NC(=O)[C@@H](Cc2ccccc2)NC(=O)[C@@H]([C@H](C)O)NC(=O)[C@@H](Cc2ccccc2)NC(=O)[C@@H](Cc2c[nH]c3ccccc23)NC(=O)[C@@H](Cc2c[nH]c3ccccc23)NC(=O)[C@H](NC(=O)[C@H](CCCCN)NC(=O)[C@H](CCCCN)NC(=O)[C@H](CCCNC(=N)N)NC(=O)[C@@H](N)CCCNC(=N)N)CSSC[C@H](C(=O)O)NC(=O)[C@@H](Cc2c[nH]c3ccccc23)NC1=O [PSP VI A19, H-RRKKcwwftfiwc-OH] (H-RRKK[dC][dW][dW][dF][dT][dF][dI][dW][dC]-OH; disulfide 5-13) | – | – | – | 78 |
| CC[C@@H](C)[C@H]1NC(=O)[C@@H](Cc2ccccc2)NC(=O)[C@@H]([C@H](C)O)NC(=O)[C@@H](Cc2ccccc2)NC(=O)[C@@H](Cc2c[nH]c3ccccc23)NC(=O)[C@@H](CO)NC(=O)[C@H](NC(=O)[C@H](CCCCN)NC(=O)[C@H](CCCCN)NC(=O)[C@H](CCCNC(=N)N)NC(=O)[C@@H](N)CCCNC(=N)N)CSSC[C@H](C(=O)O)NC(=O)[C@@H](CC(N)=O)NC1=O [PSP V A16, H-RRKKcswftfinc-OH] (H-RRKK[dC][dS][dW][dF][dT][dF][dI][dN][dC]-OH; disulfide 5-13) | – | – | – | 54 |
| CC[C@@H](C)[C@H]1NC(=O)[C@@H](Cc2ccccc2)NC(=O)[C@@H]([C@H](C)O)NC(=O)[C@@H](Cc2ccccc2)NC(=O)[C@@H](Cc2c[nH]c3ccccc23)NC(=O)[C@@H](Cc2c[nH]c3ccccc23)NC(=O)[C@H](NC(=O)[C@H](CCCCN)NC(=O)[C@H](CCCCN)NC(=O)[C@H](CCCNC(=N)N)NC(=O)[C@@H](N)CCCNC(=N)N)CSSC[C@H](C(=O)O)NC(=O)[C@@H](CC(C)C)NC1=O [PSP VI A10, H-RRKKcwwftfilc-OH] (H-RRKK[dC][dW][dW][dF][dT][dF][dI][dL][dC]-OH; disulfide 5-13) | – | – | – | 48 |
| CC[C@@H](C)[C@H]1NC(=O)[C@@H](Cc2ccccc2)NC(=O)[C@@H]([C@H](C)O)NC(=O)[C@@H](Cc2ccccc2)NC(=O)[C@@H](Cc2c[nH]c3ccccc23)NC(=O)[C@@H](Cc2c[nH]c3ccccc23)NC(=O)[C@H](NC(=O)[C@H](CCCCN)NC(=O)[C@H](CCCCN)NC(=O)[C@H](CCCNC(=N)N)NC(=O)[C@@H](N)CCCNC(=N)N)CSSC[C@H](C(=O)O)NC(=O)[C@@H]([C@H](C)O)NC1=O [PSP VI A17, H-RRKKcwwftfitc-OH] (H-RRKK[dC][dW][dW][dF][dT][dF][dI][dT][dC]-OH; disulfide 5-13) | – | – | – | 27 |
